Test results taken from patent US11266149B2, “Herbicidal compositions” (University of Durham, priority 2016, dated 2022).
Entries after “also recorded” stand apart in the source; their conditions may differ.

Assays:
[1] = tested on: phenylalanine ammonia-lyase (PAL); details: Buckwheat PAL inhibition; cited from earlier work
Arabidopsis plants = experiment: Spray treatment of Arabidopsis plants; format: in vivo, Arabidopsis thaliana
Experimental: (§1) Plant material—Arabidopsis thaliana ecotype Columbia-0 was used in all experiments that utilised Arabidopsis. For spray experiments, many seeds were sown in compost inside pots with a base area of […]. The plants were treated with herbicide formulations by spraying when they were 2-3 weeks old. To obtain leaf discs, individual plants were sown in single pots and grown for 4 weeks. Leaf discs of 1-cm diameter were cored from fully expanded leaves. Glyphosate-resistant and susceptible biotypes of Conyza sumatrensis [(Retz.) E. Walker] were obtained from an olive grove in Italy. For spraying experiments, many plants were sown in compost inside pots with a base area of 81 cm^2. Plants were spray-treated at 2 weeks from sowing. For leaf disc experiments, individual plants were sown in single pots and grown for 8 weeks before coring 1-cm diameter leaf discs from fully expanded leaves. All plants were grown in a 16 h photoperiod (˜200 μmol·m^−2·s^−1) at 22° C.
(§2) Chemicals—Shikimic acid and pure glyphosate were purchased from Sigma-Aldrich (Dorset, UK). These were used to make stock solutions in water that were adjusted to pH 5.5 and used for treatment of leaf discs. Shikimate-3-phosphate trisodium salt was purchased from Santa Cruz Biotechnology (Dallas, Tex.). Gallup® 360 (Barclay Chemicals Manufacturing Ltd, Dublin, Ireland), a formulation of 360 g/L glyphosate, was used for spray treatments after diluting down to the desired rate.
(§3) Treatments—Leaf discs of 1 cm-diameter were cored from plants and floated on 10 mL solutions inside Petri dishes. A minimum of 5 replicate discs per treatment arising from 5 independent plants were used. For dark incubation, the Petri dishes were wrapped in aluminium foil to exclude light. Leaf discs were harvested at time-points indicated in the Figure legends for photographing or for shikimic acid analysis. For spray treatments, glyphosate was formulated in 3 mL with enough Gallup® to achieve the desired rate on a surface area of 36 cm^2 or 81 cm^2 pots. A commercial herbicide enhancer oil Activator-G™ (Agrigem Ltd., Market Rasen, UK) was added as an adjuvant to spray at a final rate of 1 L/ha. Shikimate-3-phosphate was added to a final concentration of 500 μM in the 3 mL. Control plants were sprayed with water containing Activator-G only.
Next we turned our attention to the inexplicable retardation of shikimate conversion to shikimate-3-phosphate during exposure to glyphosate. We proposed the hypothesis that shikimate-3-phosphate is a critical component required for glyphosate to be phytotoxic and that glyphosate-susceptible plants attempt to block its formation in order to avoid death. We sprayed 2-week-old Arabidopsis plants with a formulation of glyphosate at different rates with or without shikimate-3-phosphate as an additive. […]

[2] = tested on: Conyza sumatrensis leaf discs; experiment: Leaf discs floated on glyphosate solutions, phytotoxicity / cell death; format: cell-based
Experimental: as §1, §2, §3
While studying programmed cell death, we noted that light is a crucial factor in the activation of plant cell death (Chivasa et al., 2009; Wang et al., 2012; Smith et al., 2014). We wondered if deprivation of light could also block glyphosate toxicity. To investigate this, we used a previously published in vitro assay (Teaster and Hoagland, 2013) in which leaf discs are floated over glyphosate solutions of desired concentration.

Arabidopsis leaf discs = experiment: Shikimic acid accumulation in Arabidopsis leaf discs; format: cell-based, Arabidopsis thaliana; details: 25 μM glyphosate
Experimental: as §3, with “Control plants were sprayed with water containing Activator-G only.” left out
Shikimic acid analysis—Leaf discs floating on treatment solutions were blotted dry, added to microfuge tubes containing 125 μL of 0.25 N HCL before snap-freezing in liquid nitrogen and storing at −20° C. […] The shikimic acid in the samples was determined by spectrophotometric measurements at 382 nm against a reagent only blank and using a calibration curve of shikimic acid standards. The shikimic acid accumulating in response to glyphosate treatment was calculated as the difference between the reading from mock-treated control leaf discs and the glyphosate-treated discs. Values were expressed as μg/mL shikimic acid. […]

Galium mollugo cells = details: glyphosate-treated Galium mollugo cells; cited from earlier work
[3] = 25° C.; cited from earlier work
[4] = tested on: Arabidopsis shikimate pathway genes; experiment: Quantitative real-time PCR of shikimate pathway genes in leaf discs; format: cell-based, Arabidopsis thaliana
Experimental: Gene expression analysis—RNA was extracted from leaf tissues using the Spectrum Plant Total RNA kit (Sigma-Aldrich) according to the manufacturer's instructions. Each sample was a pool of five 1 cm-diameter leaf discs arising from 5 independent plants. First strand cDNA synthesis was performed using 4 μg total RNA and oligod(T) using Promega (Southampton, UK) GoScript Reverse Transcription System. Quantitative real-time polymerase chain reaction was performed using SensiFast reagent kit (Bioline, London, UK) on a Rotorgene-Q (Qiagen, Crawley, UK). Each 20 μL reaction contained 10 μL SensiFast reagent, 5 μL cDNA template that had been diluted 1:8, and 8 pmoles each primer (forward and reverse primers). Cycling conditions used were as follows: denaturation at 95° C. for 2 mins followed by 40 cycles of 95° C. for 10 sec, annealing at 56° C. for 15 sec, and extension at 72° C. for 25 sec. Data analysis was performed using REST2009 (Qiagen, Crawley, UK) using ACTIN2 (At3g18780) and EIF4 (At3g13920) as reference control genes. Triplicate samples per treatment per time-point were analysed in order to calculate a mean and standard deviation.
Arabidopsis leaf discs were floated on 25 μM glyphosate solutions and incubated in light or total darkness. Samples were harvested at various intervals within 72 h of treatment for quantification of shikimic acid and analysis of gene expression using quantitative real-time PCR. […] All three DAPS genes were differentially regulated, only one of the five putative SK genes responded to glyphosate, both EPSPS genes were responsive, and the chorismate synthase (CS) genes responded as well (FIG. 6). Up-regulation of the shikimate pathway components triggered by blockading flux with glyphosate is a typical metabolic response.

[5] = tested on: Glyphosate-resistant (GR) and susceptible (GS) C. sumatrensis plants; experiment: Cut shoots placed in glyphosate solution with or without gluconic acid; format: in vivo, Conyza sumatrensis; details: 100 μM glyphosate only, ten days (FIG. 8)
Experimental: Glyphosate-resistant (GR) and susceptible (GS) C. sumatrensis plants were germinated in soil and transferred to solutions of 100 μM glyphosate with or without 5 mM gluconic acid.
Because the pentose phosphate pathway gene GntK responds to glyphosate, we tested if intermediates in the pathway might also influence glyphosate toxicity (FIG. 8). Glyphosate resistant (GR) and glyphosate susceptible (GS) Conyza sumatrensis were germinated in soil and the shoots cut off at the base of the stem and placed in 2 mL of 100 μM glyphosate with or without gluconic acid at various concentrations. […] Cessation of growth and development of chlorosis are key hallmarks of glyphosate toxicity.

[6] = tested on: Conyza sumatrensis leaf discs; experiment: Shikimic acid accumulation in leaf discs; format: cell-based
Experimental: as §3
Shikimic acid analysis—Leaf discs floating on treatment solutions were blotted dry, added to microfuge tubes containing 125 μL of 0.25 N HCL before snap-freezing in liquid nitrogen and storing at −20° C. Samples were thawed at room temperature, vortexed for 5 min, and then incubated at 60° C. for 15 min. Aliquots of 25 μL were withdrawn and mixed with 100 μL of 0.25% (w/v) periodic acid/0.25% m-periodate in fresh microfuge tubes. After 30 min incubation at 37° C., 100 μL of 0.6 N NaOH/0.22 M Na2SO3 were added and the volume made up to 1 mL with distilled water. The shikimic acid in the samples was determined by spectrophotometric measurements at 382 nm against a reagent only blank and using a calibration curve of shikimic acid standards. The shikimic acid accumulating in response to glyphosate treatment was calculated as the difference between the reading from mock-treated control leaf discs and the glyphosate-treated discs. Values were expressed as μg/mL shikimic acid.

[7] = glyphosate, dark incubation (FIG. 6)
[8] = glyphosate-treated leaf discs (FIG. 6)

For `NO[C@@H](Cc1ccccc1)C(=O)O` [L-α-aminooxy-β-phenylpropionic acid], which “phenylalanine accumulation, light versus dark” value [1] is on record?
The value was “three-fold higher phenylalanine accumulation in light than in the dark”.

Which “adverse effects on Arabidopsis” value (Arabidopsis plants; 500 μM shikimate-3-phosphate on its own, spray (FIG. 7C)) does the source give for `O=C([O-])C1=C[C@@H](OP(=O)([O-])[O-])[C@@H](O)[C@H](O)C1.[Na+].[Na+].[Na+]` [Shikimate-3-phosphate, Shikimate-3-phosphate trisodium salt] here?
The value was “did not have any adverse effects”.

For `O=C(O)CNCP(=O)(O)O` [glyphosate, N-[phosphonomethyl] glycine], which “phytotoxic effects at much higher glyphosate concentration” value ([2]; 1 mM glyphosate, dark incubation, 3 days (FIG. 2C)) is on record?
Its value is “still requires light for phytotoxicity; also recorded: dark-incubation suppressed the phytotoxic effects”.

And the “phytotoxic effects of glyphosate on leaf discs” value ([2]; incubated in complete darkness, 100 μM glyphosate, 14 days (FIG. 2A))?
The value was “protected from the phytotoxic effects”.

What about the “viability of leaf discs” value ([2]; resistant biotype, 100 μM glyphosate on its own (FIG. 4A)) of the same compound?
Its value is “did not affect the viability”.

And the “shikimate accumulation and cell death by biotype” value ([2]; susceptible and resistant biotypes (FIG. 3))?
The value was “activates shikimate accumulation and cell death in the susceptible, but not resistant biotype”.

And the “time until cell death (chlorosis, browning) easily visible” value ([2]; susceptible biotype, leaf discs floated on glyphosate)?
The value was 10 to 14 days.

What about the shikimic acid accumulation (Arabidopsis leaf discs; dark incubation (FIG. 5)) of the same compound?
The shikimic acid accumulation was “suppressed shikimic acid accumulation”.

And the shikimic acid accumulation (Arabidopsis leaf discs; incubated in light, within 72 h (FIG. 5))?
Its shikimic acid accumulation is “significant accumulation of shikimic acid”.

And the “symptoms after foliar application by spraying” value (Arabidopsis plants; 2-week-old plants, Gallup 360 formulation (FIG. 7A))?
The value was “causes chlorosis and then cell death of apical meristems”.

And the “effects on plant growth” value (Arabidopsis plants; glyphosate 18 g/ha, spray, 3 weeks (FIG. 7B))?
Its value is “no effects on plant growth”.

What about the “effects on Arabidopsis” value (Arabidopsis plants; glyphosate 36 g/ha, spray, 3 weeks (FIG. 7B)) of the same compound?
Its value is “very modest effects”.

And the “estimated cellular shikimic acid” value (Galium mollugo cells)?
The value was 20 to 23 mM.

What about the solubility in water [3] of the same compound?
Its solubility in water is 1.16 % by weight.

And the “expression of At2g16790 in the dark” value [4, 7]?
Its value is “also stimulated in the dark”.

What about the “glyphosate-induced stimulation of other genes in the dark” value [4, 7] of the same compound?
The value was “dark incubation suppressed glyphosate-induced stimulation”.

And the “expression of DAHPS, SK, EPSPS and CS genes” value ([4]; glyphosate, in light (FIG. 6))?
The value was “significant changes in the expression”.

What about the “change in gene expression of At2g16790” value [4, 8] of the same compound?
Its value is “over 30 fold”.

And the “change in gene expression of all other genes” value [4, 8]?
Its value is “below 6 fold”.

And the “growth and chlorosis of GR plants” value ([5]; GR plants)?
The value was “have grown with expanded healthy and green leaves; also recorded: remained healthy and green”.

And the “growth and chlorosis of GS plants” value ([5]; GS plants)?
Its value is “stunted and chlorotic; also recorded: stopped growing and developed chlorosis, which eventually led to tissue death”.

What about the “shikimic acid accumulation in leaf tissues” value ([6]; continuous dark incubation (FIG. 2B)) of the same compound?
Its value is “suppressed shikimic acid accumulation”.

What about the “shikimic acid level, susceptible versus resistant biotype” value ([6]; glyphosate 25-200 μM, one week (FIG. 3B)) of the same compound?
Its value is “significantly higher levels of shikimic acid than the resistant biotype”.

What about the “shikimic acid concentration in leaf tissues” value ([6]; light-dark cycle, one week after treatment (FIG. 2B)) of the same compound?
Its value is “massive rise”.

And the “maximum concentration of shikimic acid accumulating” value ([6]; susceptible C. sumatrensis, within 3 days of exposure to glyphosate)?
Its value is 10 to 15 mM.

With `O=C(O)C1=C[C@@H](O)[C@@H](O)[C@H](O)C1` [shikimic acid, Shikimic acid] as the compound, how does the “breaking of glyphosate resistance at lower shikimic acid concentrations” value ([2]; with glyphosate, shikimic acid below 1-5 mM, 7 days (FIG. 4B)) read?
The value was “unable to”.

And the “shikimic acid concentrations able to break glyphosate resistance” value ([2]; with glyphosate, within 7 days of application (FIG. 4B))?
The value was 1 to 5 mM.

What about the “phytotoxicity of shikimic acid on its own” value ([2]; without glyphosate, up to 15 mM) of the same compound?
The value was “not phytotoxic; also recorded: did not cause any phytotoxicity”.
